{"source": "patent US20160310417A1", "about": "“Formulations and Methods For Targeted Ocular Delivery of Therapeutic Agents” (Emory University, priority 2013, published 2016)", "key": {"rabbit cornea": {"test_system": "rabbit cornea", "experiment": "Safety of intrastromal delivery: corneal surface inspection and histology", "assay_type": "in vivo", "source_text": "To identify possible microanatomical changes after intrastromal delivery using microneedles, we conducted a histological safety study using four study groups: (i) The untreated group received no suture and no other treatments. (ii) The suture-only group received a suture at day 0, but no other treatments. (iii). The suture with non-coated microneedles group received a suture on day 0 and four non-coated microneedles inserted at the site of the suture on day 4. […] Animals were sacrificed on days 1, 6, 10 and/or 18 for histological analysis. Suture placement and microneedle application were carried out as described above. High magnification images were taken every day in all study groups to assess possible gross corneal damage. Corneal tissues were fixed in 10% formalin and embedded in paraffin. Hematoxylin-eosin (HE) or periodic acid-Schiff (PAS) staining was performed.\nThe rabbit corneas with and without microneedle treatment and with and without suture placement were evaluated to assess the safety of microneedle insertion by both magnified inspection of the corneal surface in vivo and histological examination of tissue sections obtained at various times after microneedle treatment Immediately after insertion and removal of the microneedle, a small puncture in the corneal epithelium was evident with a size on the order of 200 μm (data not shown). […]"}, "[1]": {"experiment": "Intrastromal delivery of bevacizumab from coated microneedles into rabbit cornea in vivo (ELISA)"}, "[2]": {"test_system": "corneal neovascularization", "experiment": "Suture-induced corneal neovascularization model, neovascularization area by image analysis", "assay_type": "in vivo, New Zealand rabbits", "conditions": "for average neovascularization area lower compared to no treatment group: MN-1bolus: intrastromal 1.1 μg, single microneedle; for reduction of neovascularization compared to untreated eye: SC-high: subconjunctival injection 2500 μg bolus on day 4", "method": "All animal studies adhered to the ARVO statement for the Use of Animals in Ophthalmic and Vision Research and were approved by the Georgia Institute of Technology Institutional Animal Care and Use Committee (IACUC). Male and female New Zealand rabbits (2.2-2.5 kg) were anesthetized with ketamine (17 mg/kg), xylazine (8.5 mg/kg) and acepromazine (0.5 mg/kg) subcutaneously. Following topical administration of 0.5% proparacaine hydrochloride to minimize discomfort, a single 7.0-gauge silk suture (Ethicon TG140, Blue Ash, Ohio) was placed at midstromal depth 1 mm away from the limbus of the rabbit cornea to generate corneal neovascularization associated with minor traumatic injury. This silk suture was left in the rabbit cornea for the duration of the experiment to induce neovascularization. For each animal, a suture was placed in one eye and the companion eye was left untreated.\nDuring the experiment, the rabbit eye was imaged using a digital camera (Cannon Rebel Tli, Melvile, N.Y.) with macroscopic lens (Cannon MP-E 65 mm) at 3× magnification every two days after placement of the suture. The area of neovascularization was quantified using Adobe Photoshop (Adobe, Jan Jose, Calif.).\nPrior to all treatment procedures except for topical delivery, rabbits were anesthetized with ketamine (6 mg/kg), xylazine (4 mg/kg) and acepromazine (0.25 mg/kg) subcutaneously. A reduced dose of anesthesic compared to the suture insertion procedure was used to reduce possible stress to the animals. A single drop of topical proparacaine ophthalmic solution was given as anesthesia. The duration of each study was 18 days and, after the suture insertion at the beginning of the experiment, 4 days were allowed for neovascularization to develop. All the treatments were done on day 4 except as indicated below.\nThe high-dose group (SC-high) received 2500 μg of bevacuzumab (in 100 μL, i.e., Avastin). The low-dose group (SC-low) received 4.4 μg of bevacuzumab (Avastin was diluted with HBSS to 100 μL)."}, "IOP in the rabbit eye": {"test_system": "IOP in the rabbit eye", "experiment": "Intraocular pressure (IOP) pharmacodynamics in normotensive rabbit, tonometer", "assay_type": "in vivo, New Zealand White rabbits", "conditions": "for IOP decrease, treated eye: within 1 hour"}}, "data": [{"compound": "Bevacizumab", "values": [{"measurement": "corneal histology, sutured eyes with versus without microneedle treatment", "setting": "rabbit cornea; 1.1 μg bevacizumab by microneedle four days after suture", "result": "no notable differences"}, {"measurement": "corneal surface after treatment with bevacizumab-coated microneedles", "setting": "rabbit cornea; magnified inspection in vivo, daily over 18 days", "result": "only a microscopic puncture in the corneal epithelium that disappeared within one day and was not associated with any complications"}, {"measurement": "coated bevacizumab delivered into the cornea", "setting": "[1]; coated microneedles, 10 dip coats, inserted 60 sec, rabbit cornea in vivo", "result": 52, "unit": "%"}, {"measurement": "amount of bevacizumab delivered per microneedle", "setting": "[1]; microneedles coated with 20 dips", "result": "1.14 ± 0.11", "unit": "µg"}, {"measurement": "average neovascularization area lower compared to no treatment group", "setting": "[2]; day 4, day 10", "result": 34, "unit": "%"}, {"measurement": "average neovascularization area lower compared to no treatment group", "setting": "[2]; day 4, day 18", "result": 10, "unit": "%"}, {"measurement": "reduction of neovascularization area", "setting": "[2]; MN-1bolusx3: intrastromal 1.1 μg on days 4, 6 and 8 (total 3.3 μg), day 10", "result": 50, "unit": "%"}, {"measurement": "reduction of neovascularization area compared to untreated eyes", "setting": "[2]; MN-4bolus: intrastromal 4.4 μg, four coated microneedles, day 4, day 10", "result": 65, "unit": "%"}, {"measurement": "reduction of neovascularization compared to untreated eyes", "setting": "[2]; MN-hollow: intrastromal 50 μg (2 μL of 25 μg/μL) by hollow microneedle, day 4, day 10", "result": 74, "unit": "%"}, {"measurement": "reduction of neovascularization compared to untreated eye", "setting": "[2]; day 10", "result": 62, "unit": "%"}, {"measurement": "reduction of neovascularization compared to untreated eye", "setting": "[2]; day 18", "result": 29, "unit": "%"}, {"measurement": "effect on neovascularization compared to untreated eyes", "setting": "[2]; SC-low: subconjunctival injection 4.4 μg bolus on day 4", "result": "no significant effect"}, {"measurement": "reduction of neovascularization compared to untreated eyes", "setting": "[2]; TOP: topical eye drops 3 per day from day 4, total 52,500 μg, day 18", "result": 6, "unit": "%"}]}, {"compound": "FC(F)OC(Cl)C(F)(F)F", "note": "(stereo not shown) [isoflurane]", "values": [{"measurement": "time for effects on IOP to reverse", "setting": "IOP in the rabbit eye; after inhalation stopped", "result": "15 to 30", "unit": "min"}, {"measurement": "IOP elevation", "setting": "IOP in the rabbit eye; during 15 min inhalation of escalating dose", "result": "~5", "unit": "mmHg"}]}, {"compound": "brimonidine tartrate", "values": [{"measurement": "supraciliary dose for similar pharmacodynamic response, fold less than topical delivery (AUCPD)", "setting": "IOP in the rabbit eye; brimonidine, topical 75 μg vs supraciliary", "result": 115, "unit": "fold"}, {"measurement": "time for IOP to return to normal", "setting": "IOP in the rabbit eye; single topical drop 75 μg", "result": "≤ 6", "unit": "h"}, {"measurement": "peak IOP reduction, treated eye", "setting": "IOP in the rabbit eye; single topical drop 75 μg, at 2 hours", "result": "approximately 4 mmHg"}, {"measurement": "IOP changes in treated and contralateral eyes", "setting": "IOP in the rabbit eye; supraciliary 0.015 μg in 10 μL", "result": "no significant IOP changes"}, {"measurement": "persistence of IOP drop", "setting": "IOP in the rabbit eye; supraciliary 0.75 μg in 10 μL", "result": "about 5 hours"}, {"measurement": "peak IOP drop, treated eye", "setting": "IOP in the rabbit eye; supraciliary 0.75 μg in 10 μL, at 2 hours", "result": "~3", "unit": "mmHg"}, {"measurement": "persistence of IOP decrease", "setting": "IOP in the rabbit eye; supraciliary 1.5 μg in 10 μL", "result": "about 9 hours"}, {"measurement": "IOP decrease, treated eye", "setting": "IOP in the rabbit eye; supraciliary 1.5 μg in 10 μL", "result": "~3.3", "unit": "mmHg"}]}, {"compound": "CC(C)OC(=O)CCC/C=C\\C[C@@H]1[C@@H](CC[C@@H](O)CCc2ccccc2)[C@H](O)C[C@@H]1O", "note": "[latanoprost]", "values": [{"measurement": "change in IOP", "setting": "IOP in the rabbit eye; standard human dose of 2.5 μg, rabbit model", "result": "no change in IOP was observed"}]}, {"compound": "CS(=O)(=O)NC(=O)CCC/C=C\\C[C@H]1C(=O)C[C@@H](O)[C@@H]1/C=C/[C@@H](O)COc1ccccc1", "note": "[sulprostone, Sulprostone]", "values": [{"measurement": "duration of ocular hypotension, treated eye", "setting": "IOP in the rabbit eye; single topical eye drop 2.5 μg", "result": "about 8 hours"}, {"measurement": "maximum IOP decrease, treated eye", "setting": "IOP in the rabbit eye; single topical eye drop 2.5 μg, at approximately 2 hours", "result": "~3.4", "unit": "mmHg"}, {"measurement": "ratio of topical to supraciliary dose for similar pharmacodynamic response (AUCPD comparison)", "setting": "IOP in the rabbit eye; sulprostone, topical 2.5 μg vs supraciliary, Equation (2)", "result": 101}, {"measurement": "persistence of ocular hypotension, treated eye", "setting": "IOP in the rabbit eye; supraciliary 0.005 μg in 10 μL", "result": "approximately 6 hours"}, {"measurement": "peak IOP drop, treated eye", "setting": "IOP in the rabbit eye; supraciliary 0.005 μg in 10 μL, at 1 hour", "result": "~2.8", "unit": "mmHg"}, {"measurement": "persistence of IOP decrease", "setting": "IOP in the rabbit eye; supraciliary 0.025 μg in 10 μL", "result": "at least 9 hours"}, {"measurement": "IOP decrease, treated eye", "setting": "IOP in the rabbit eye; supraciliary 0.025 μg in 10 μL", "result": "~3.1", "unit": "mmHg"}]}]}
